The subject of series [1] is Typhlodromus pyri. Nature of the series: LR50; higher = less toxic. The following applies: acute; duration: 14 days; mortality.
Series [2] relates to Adalia sp. Nature of the series: LR50; higher = less toxic. The following applies: not reported; mortality.
Series [3] deals with Neomysis kadiakensis. The conditions noted are these: acute; duration: 96 hours; mortality.
The subject of series [4] is Oryctolagus sp. The conditions noted are these: developmental; development.
For series [5], the system named is Mus musculus. The conditions noted are these: chronic; duration: 18 months; histopathology: neoplastic.
The subject of series [6] is Rattus norvegicus.
For series [7], the system named is Tagia sp. The conditions noted are these: acute; duration: 14 days; mortality.
Series [8] has as its system Oncorhynchus mykiss.
Series [9] concerns Colinus virginianus.
The test system of series [10] is Apis mellifera. The conditions noted are these: acute; duration: 48 hours; oral; unspecified; mortality.
The subject of series [11] is Daphnia magna.
Series [12] deals with Anas platyrhynchos.
The test system of series [13] is Bibionidae. The conditions noted are these: chronic/long-term.

≈ marks a conversion by molar mass, not a printed value.

Broadly, the NOAEL is the highest dose or exposure tested at which no adverse effect was seen. For orientation: LOAEL means the lowest dose or exposure tested at which an adverse effect was seen. As for `CCOC(=O)NCCOc1ccc(Oc2ccccc2)cc1` [Fenoxycarb], the LR50 is over 463 g/ha in series [1] and over 2.5 g/ha in [2]. Besides, the LC50 is 0.35 µg/mL (≈ 1.16 µM) in [3]; over 850 mg/kg in series [7]; 0.66 µg/mL (≈ 2.19 µM) in series [8] (acute, duration: 96 hours, mortality); 1360 mg/kg-day in [9] (acute, oral, diet, mortality); 0.5 µg/mL (≈ 1.66 µM) in series [11] (acute, duration: 48 hours, mortality); over 5880 mg/kg-day in series [12] (short-term, oral, feed, mortality). Moreover, the no-observed-adverse-effect level (NOAEL) in series [4] worked out at 200 mg/kg-day; in [6] (subchronic, duration: 13 weeks, oral, organ weight) it was 9.7 mg/kg-day. For the same compound, in series [5], the LOAEL came out at 5.3 mg/kg-day. Besides, the LD50 was over 10000 mg/kg-day in series [6] (acute, oral, mortality); over 7000 mg/kg-day in series [9] (acute, oral, mortality); over 204 µg/piece in [10]; over 3000 mg/kg-day in series [12] (acute, oral, unspecified, mortality). The NOAEC in [6] (chronic) worked out at 40 mg/kg-day. Further, the NOEC worked out at 0.048 mg/L in [8] (chronic/long-term, duration: 60 days, body weight); 35.9 mg/kg-day in series [9] (reproduction developmental); 1.6e-06 mg/L in series [11] (chronic/long-term, duration: 21 days, reproduction); 17.7 mg/kg-day in series [12] (reproductive); 0.0028 mg/kg in series [13]; 0.00075 mg/L in [13] (duration: 28 days).

These data come from EPA's ToxValDB 9.5 (doi:10.2903/j.efsa.2010.1779).
